Bridge positions count the residues as written; N and C are the ends. Square brackets hold non-standard residues; d marks the D form. Peptide text beside a SMILES is read from it. * marks the point of attachment. ξ: configuration not given here. Phe(4-COOH) = N[C@@H](Cc1ccc(C(=O)O)cc1)C(=O)O; Ala(4-thiazolyl) = N[C@@H](Cc1cscn1)C(=O)O; Bip = N[C@@H](Cc1ccc(-c2ccccc2)cc1)C(=O)O; Tyr(3-I) = N[C@@H](Cc1ccc(O)c(I)c1)C(=O)O; Phe(3-Me) = Cc1cccc(C[C@H](N)C(=O)O)c1; aIle = CC[C@@H](C)[C@H](N)C(=O)O; 4Pal = N[C@@H](Cc1ccncc1)C(=O)O; Cha = N[C@@H](CC1CCCCC1)C(=O)O; Cit = NC(=O)NCCC[C@H](N)C(=O)O; Ile(3ξ) = CCC(C)[C@H](N)C(=O)O; NMeD = CN[C@@H](CC(=O)O)C(=O)O; Thr(3ξ) = CC(O)[C@H](N)C(=O)O; dOrn = NCCC[C@@H](N)C(=O)O; Carboxymethyl = O=C(O)C*; NMeA = CN[C@@H](C)C(=O)O; Dab = NCC[C@H](N)C(=O)O; ξN = NC(=O)CC(N)C(=O)O; ξV = CC(C)C(N)C(=O)O; ξC = NC(CS)C(=O)O
Target: T1, PE-labeled human PD-L1-Ig binding to Jurkat cell line over-expressing human PD-1 (Jurkat-PD-1) (Homo sapiens, UniProt Q15116)
T1 construct: expressed in transfected cells; host or cells: Jurkat
T1 sequence (Q15116 25-288): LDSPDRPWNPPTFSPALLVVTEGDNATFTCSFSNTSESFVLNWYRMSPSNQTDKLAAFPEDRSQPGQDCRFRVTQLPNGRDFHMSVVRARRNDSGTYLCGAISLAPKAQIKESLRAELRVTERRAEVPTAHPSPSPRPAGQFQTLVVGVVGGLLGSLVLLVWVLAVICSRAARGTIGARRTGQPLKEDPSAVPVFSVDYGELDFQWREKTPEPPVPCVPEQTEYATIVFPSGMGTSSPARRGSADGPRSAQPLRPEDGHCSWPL
Experiment: Jurkat-PD-1 Cell Binding High-Content Screening Assay (CBA): Method 1
Conditions: Jurkat HPDL1 PD1 IC50 (uM) (Method 1), Jurkat-hPD-1 cells, PE-labeled PD-L1-Ig 20 nM final

Structure (SMILES)	IC50 [µM]
Cc1cccc(C[C@@H]2NC(=O)[C@H](CC(=O)O)NC(=O)[C@H](Cc3ccc(OCC(=O)O)cc3)NC(=O)[C@H](Cc3ccncc3)NC(=O)CSC[C@@H](C(=O)N[C@@H](C)C(N)=O)NC(=O)[C@H](CO)NC(=O)[C@H](Cc3ccccc3)NC(=O)[C@H](CC(C)C)NC(=O)[C@H](CC(N)=O)NC(=O)[C@@H](CC(C)C)NC(=O)[C@H](C)N(C)C(=O)[C@H](Cc3ccccc3)NC(=O)[C@H](Cc3ccc(-c4ccccc4)cc3)NC(=O)[C@H](CC(C)C)NC2=O)c1 [Compound 1588] ({CH2CO}-[4Pal]Y(Carboxymethyl)D[Phe(3-Me)]L[Bip]F[NMeA][dL]NLFSCA-NH2; thioether N-14)	0.32

Same assay, conditions: Jurkat-hPD-1 cells, PE-labeled PD-L1-Ig 20 nM final; read-out: Jurkat HPDL1 PD1 IC50 (uM) (Method 1)

Structure (SMILES)	IC50 [µM]
CCC(C)[C@@H]1NC(=O)[C@H](Cc2ccc(-c3ccccc3)cc2)NC(=O)[C@H](Cc2ccc(O)cc2)NC(=O)[C@H](Cc2cccc(C)c2)NC(=O)[C@H](CC(=O)O)NC(=O)[C@H](Cc2ccc(OCC(=O)O)cc2)NC(=O)[C@H](C(C)O)NC(=O)CSC[C@@H](C(=O)N[C@@H](CO)C(N)=O)NC(=O)[C@H](C(C)O)NC(=O)[C@H](C(C)C)NC(=O)[C@H](CC2CCCCC2)NC(=O)[C@H](CCN)NC(=O)[C@@H](CC(C)C)NC(=O)[C@H](C)N(C)C1=O (stereo partly drawn) [Compound 2121] ({CH2CO}-[Thr(3ξ)]Y(Carboxymethyl)D[Phe(3-Me)]Y[Bip][Ile(3ξ)][NMeA][dL][Dab][Cha]V[Thr(3ξ)]CS-NH2; thioether N-14)	0.04
CC(=O)NCCCC[C@@H]1NC(=O)[C@H](C(C)C)NC(=O)[C@H](CC2CCCCC2)NC(=O)[C@H](CCN)NC(=O)[C@@H](CC(C)C)NC(=O)[C@H](C)N(C)C(=O)[C@H](CCC(N)=O)NC(=O)[C@H](Cc2ccc(-c3ccccc3)cc2)NC(=O)[C@H](C(C)C)NC(=O)[C@H](Cc2cccc(C)c2)NC(=O)[C@H](CC(=O)O)NC(=O)[C@H](Cc2ccc(OCC(=O)O)cc2)NC(=O)[C@H](Cc2ccc(OCC(=O)O)cc2)NC(=O)CSC[C@@H](C(=O)N[C@H](CCCN)C(N)=O)NC1=O [Compound 2155] ({CH2CO}-Y(Carboxymethyl)Y(Carboxymethyl)D[Phe(3-Me)]V[Bip]Q[NMeA][dL][Dab][Cha]VK(Ac)C[dOrn]-NH2; thioether N-14)	0.01
CC(C)C[C@@H]1NC(=O)[C@H](C(C)C)NC(=O)[C@H](Cc2ccccc2)NC(=O)[C@H](CC(=O)O)N(C)C(=O)[C@H](CCCNC(=N)N)NC(=O)[C@H](Cc2ccc(-c3ccccc3)cc2)NC(=O)[C@H](C(C)C)NC(=O)[C@H](Cc2c[nH]c3ccccc23)NC(=O)[C@H](CC(=O)O)NC(=O)[C@H](Cc2ccc(O)cc2)NC(=O)[C@H](Cc2ccccc2)NC(=O)CSC[C@@H](C(=O)NCC(N)=O)NC(=O)[C@H](CO)NC(=O)[C@H](C(C)C)NC1=O [Compound 1008] ({CH2CO}-FYDWV[Bip]R[NMeD]FVLVSCG-NH2; thioether N-14)	0.7
CC(C)C[C@@H]1NC(=O)[C@H](CCCNC(=N)N)NC(=O)[C@@H](CC(C)C)NC(=O)[C@H](C)N(C)C(=O)[C@H](CCCNC(=N)N)NC(=O)[C@H](Cc2ccc(-c3ccccc3)cc2)NC(=O)[C@H](C(C)C)NC(=O)[C@H](Cc2c[nH]c3ccccc23)NC(=O)[C@H](CC(=O)O)NC(=O)[C@H](Cc2ccc(O)c(I)c2)NC(=O)[C@H](Cc2ccccc2)NC(=O)CSC[C@@H](C(=O)N[C@@H](C)C(N)=O)NC(=O)[C@H]([C@@H](C)O)NC(=O)[C@H](C(C)C)NC1=O [Compound 1109] ({CH2CO}-F[Tyr(3-I)]DWV[Bip]R[NMeA][dL]RLVTCA-NH2; thioether N-14)	0.12
CC[C@@H](C)[C@@H]1NC(=O)[C@H](Cc2ccc(-c3ccccc3)cc2)NC(=O)[C@H](CC(C)C)NC(=O)[C@H](Cc2c[nH]c3ccccc23)NC(=O)[C@H](CC(=O)O)NC(=O)[C@H](Cc2ccc(C(=O)O)cc2)NC(=O)[C@H](Cc2ccc(OCC(=O)O)cc2)NC(=O)CSC[C@@H](C(=O)N[C@@H](CCCCN)C(N)=O)NC(=O)[C@H](Cc2cscn2)NC(=O)C(C(C)C)NC(=O)[C@H](CC(C)C)NC(=O)[C@H](CC(N)=O)NC(=O)[C@@H](CC(C)C)NC(=O)[C@H](C)N(C)C1=O (stereo partly drawn) [Compound 2107] ({CH2CO}-Y(Carboxymethyl)[Phe(4-COOH)]DWL[Bip][aIle][NMeA][dL]NL[ξV][Ala(4-thiazolyl)]CK-NH2; thioether N-14)	0.24
CC(C)C[C@@H]1NC(=O)[C@H](Cc2c[nH]c3ccccc23)NC(=O)[C@H](CC(=O)O)NC(=O)[C@H](Cc2ccc(O)cc2)NC(=O)[C@H](Cc2ccccc2)NC(=O)CSC[C@@H](C(=O)NCC(N)=O)NC(=O)[C@H](CO)NC(=O)[C@H](C(C)C)NC(=O)[C@H](CC(C)C)NC(=O)[C@H](CC(N)=O)NC(=O)[C@@H](CCC(N)=O)NC(=O)[C@H](C)N(C)C(=O)[C@H](C(C)C)NC(=O)[C@H](Cc2ccc(-c3ccccc3)cc2)NC1=O [Compound 1784] ({CH2CO}-FYDWL[Bip]V[NMeA][dQ]NLVSCG-NH2; thioether N-14)	0.09
CC[C@@H](C)[C@@H]1NC(=O)[C@H](Cc2ccc(-c3ccccc3)cc2)NC(=O)[C@H](CC(C)C)NC(=O)[C@H](Cc2c[nH]c3ccccc23)NC(=O)[C@H](CC(=O)O)NC(=O)[C@H](Cc2ccc(C(=O)O)cc2)NC(=O)[C@H](Cc2ccc(OCC(=O)O)cc2)NC(=O)CSC[C@@H](C(=O)N[C@@H](CCCCN)C(N)=O)NC(=O)[C@H](CO)NC(=O)C(C(C)C)NC(=O)[C@H](CC(C)C)NC(=O)[C@H](CC(N)=O)NC(=O)[C@@H](CC(C)C)NC(=O)[C@H](C)N(C)C1=O (stereo partly drawn) [Compound 2100] ({CH2CO}-Y(Carboxymethyl)[Phe(4-COOH)]DWL[Bip][aIle][NMeA][dL]NL[ξV]SCK-NH2; thioether N-14)	0.03
CC(C)C[C@@H]1NC(=O)[C@H](Cc2c[nH]c3ccccc23)NC(=O)[C@H](CC(=O)O)NC(=O)[C@H](Cc2ccc(C(=O)O)cc2)NC(=O)[C@H](Cc2ccc(OCC(=O)O)cc2)NC(=O)CSC[C@@H](C(=O)NC(CC(N)=O)C(N)=O)NC(=O)[C@H](CO)NC(=O)[C@H](C(C)C)NC(=O)[C@H](CC2CCCCC2)NC(=O)[C@H](CCN)NC(=O)[C@@H](CC(C)C)NC(=O)[C@H](C)N(C)C(=O)[C@H](C(C)C)NC(=O)[C@H](Cc2ccc(-c3ccccc3)cc2)NC1=O (stereo partly drawn) [Compound 1912] ({CH2CO}-Y(Carboxymethyl)[Phe(4-COOH)]DWL[Bip]V[NMeA][dL][Dab][Cha]VSC[ξN]-NH2; thioether N-14)	0.02
CCC(C)[C@@H]1NC(=O)[C@H](Cc2ccc(-c3ccccc3)cc2)NC(=O)[C@H](C(C)C)NC(=O)[C@H](Cc2c[nH]c3ccccc23)NC(=O)[C@H](CC(=O)O)NC(=O)[C@H](Cc2ccc(O)cc2)NC(=O)[C@H](CC(N)=O)NC(=O)CSC[C@@H](C(=O)N[C@@H](C)C(N)=O)NC(=O)[C@H](CO)NC(=O)[C@H](C(C)C)NC(=O)[C@H](CC(C)C)NC(=O)[C@H](CCN)NC(=O)[C@@H](CC(C)C)NC(=O)[C@H](C)N(C)C1=O (stereo partly drawn) [Compound 2070] ({CH2CO}-NYDWV[Bip][Ile(3ξ)][NMeA][dL][Dab]LVSCA-NH2; thioether N-14)	0.05
CCC(C)[C@@H]1NC(=O)[C@H](Cc2ccc(-c3ccccc3)cc2)NC(=O)[C@H](C(C)C)NC(=O)[C@H](Cc2c[nH]c3ccccc23)NC(=O)[C@H](CC(N)=O)NC(=O)[C@H](Cc2ccc(O)cc2)NC(=O)[C@H](CC(N)=O)NC(=O)CSCC(C(=O)NCC(N)=O)NC(=O)[C@H](C(C)O)NC(=O)[C@H](C(C)C)NC(=O)[C@H](CC2CCCCC2)NC(=O)[C@H](CC(N)=O)NC(=O)[C@@H](CC(C)C)NC(=O)[C@H](C)N(C)C1=O (stereo partly drawn) [Compound 2066] ({CH2CO}-NYNWV[Bip][Ile(3ξ)][NMeA][dL]N[Cha]V[Thr(3ξ)][ξC]G-NH2; thioether N-14)	0.35
CC(C)C[C@@H]1NC(=O)[C@H](Cc2c[nH]c3ccccc23)NC(=O)[C@H](CC(=O)O)NC(=O)[C@H](Cc2ccc(O)cc2)NC(=O)[C@H](Cc2ccccc2)NC(=O)CSC[C@@H](C(=O)NCC(N)=O)NC(=O)[C@H]([C@@H](C)O)NC(=O)[C@H](C(C)C)NC(=O)[C@H](CC(C)C)NC(=O)[C@H](CC(N)=O)NC(=O)[C@@H](C)NC(=O)[C@H](C)N(C)C(=O)[C@H](C(C)C)NC(=O)[C@H](Cc2ccc(-c3ccccc3)cc2)NC1=O [Compound 1476] ({CH2CO}-FYDWL[Bip]V[NMeA][dA]NLVTCG-NH2; thioether N-14)	0.06
CC(C)C[C@@H]1NC(=O)[C@H](CCCCN)NC(=O)[C@@H](CC(C)C)NC(=O)[C@H](C)N(C)C(=O)[C@H](CCCNC(N)=O)NC(=O)[C@H](Cc2ccc(-c3ccccc3)cc2)NC(=O)[C@H](C(C)C)NC(=O)[C@H](Cc2c[nH]c3ccccc23)NC(=O)[C@H](CC(=O)O)NC(=O)[C@H](Cc2ccc(O)cc2)NC(=O)[C@H](CC(N)=O)NC(=O)CSC[C@@H](C(=O)N[C@@H](C)C(N)=O)NC(=O)[C@H](CO)NC(=O)[C@H](C(C)C)NC1=O [Compound 1473] ({CH2CO}-NYDWV[Bip][Cit][NMeA][dL]KLVSCA-NH2; thioether N-14)	0.04
CC[C@H](C)[C@@H]1NC(=O)[C@H](Cc2ccc(-c3ccccc3)cc2)NC(=O)[C@H](C(C)C)NC(=O)[C@H](Cc2c[nH]c3ccccc23)NC(=O)[C@H](CC(=O)O)NC(=O)[C@H](Cc2ccc(O)cc2)NC(=O)[C@H](Cc2ccccc2)NC(=O)CSC[C@@H](C(=O)N[C@@H](C)C(N)=O)NC(=O)[C@H]([C@@H](C)O)NC(=O)[C@H](C(C)C)NC(=O)[C@H](CC(C)C)NC(=O)[C@H](CCN)NC(=O)[C@@H](CC(C)C)NC(=O)[C@H](C)N(C)C1=O [Compound 1393] ({CH2CO}-FYDWV[Bip]I[NMeA][dL][Dab]LVTCA-NH2; thioether N-14)	0.03
CC(C)C[C@@H]1NC(=O)[C@H](Cc2c[nH]c3ccccc23)NC(=O)[C@H](CC(=O)O)NC(=O)[C@H](Cc2ccc(OCC(=O)O)cc2)NC(=O)[C@H](Cc2ccncc2)NC(=O)CSC[C@@H](C(=O)N[C@@H](C)C(N)=O)NC(=O)[C@H](CO)NC(=O)[C@H](C(C)C)NC(=O)[C@H](CC(C)C)NC(=O)[C@H](CC(N)=O)NC(=O)[C@@H](CC(C)C)NC(=O)[C@H](C)N(C)C(=O)[C@H](C(C)C)NC(=O)[C@H](Cc2ccc(-c3ccccc3)cc2)NC1=O [Compound 1592] ({CH2CO}-[4Pal]Y(Carboxymethyl)DWL[Bip]V[NMeA][dL]NLVSCA-NH2; thioether N-14)	0.01

— patent US20240409585A1, “MACROCYCLIC IMMUNOMODULATORS” (priority 2021, published 2024)
